Test results as given in article PMC12040169 (PLOS Biology, 2025).

Assay: in vitro
Settings: human, hela cells, % viability

Row | SMILES | viability at 28.5 h, 10 µM [%]
1 | COc1ccc(-c2cc3cccnc3n2CC(=O)NC(C)C)cc1 [CBK285380] | 100
2 | COc1ccc(-c2cc3cccnc3n2CC(=O)NC(C)(C)C)cc1 [CBK285381] | 115
3 | COCCCNC(=O)Cn1c(-c2ccc(F)cc2)cc2cccnc21 [CBK285385] | 88.5
4 | Cc1nccn1CC1(O)CCN(C(=O)C(C)c2ccccc2)CC1 (centres unmarked) [CBK285388] | 104
5 | Cc1nc(CC(=O)NC(Cc2ccsc2)c2cccnc2)cs1 (centres unmarked) [CBK285389] | 110
6 | Cc1csc(C(Cc2ccsc2)NC(=O)CCn2ccnc2)n1 (centres unmarked) [CBK285391] | 91.2
7 | Cc1nn(C)cc1C(=O)NC(Cc1ccsc1)c1cccnc1 (centres unmarked) [CBK285392] | 109
8 | O=C(CCn1cccn1)NC(Cc1ccsc1)c1cccnc1 (centres unmarked) [CBK285393] | 101
9 | COc1ccc(-c2cc(C3CCCCCN3)no2)cc1 (centres unmarked) [CBK285399] | 96.5
10 | Cc1cc(C[C@@H]2COC[C@H]2NCc2ccc(Cl)c(Cl)c2)on1 [CBK285400] | 88
11 | CC(=O)Nc1ccc(CN2CCCCCC2c2cc(C)no2)cc1 (centres unmarked) [CBK285415] | 101
12 | COc1cccc(C(=O)N2CCCC(c3cc4cnccc4[nH]3)C2)c1 (centres unmarked) [CBK285417] | 104
13 | Cc1cc(CN2CC3CCCN3C[C@@H]2C)c(C)n1CC1CCCO1 (some centres unmarked) [CBK285419] | 82
14 | CSCC[C@@H]1CN2CCC[C@H]2CN1Cc1cnc(C)n1C [CBK285423] | 109
15 | C[C@@H]1CN2CCCC2CN1CCc1ccccc1 (some centres unmarked) [CBK285424] | 85.4
16 | C[C@H]1CN2C[C@H](O)CC2CN1Cc1cn(C)c2ccc(F)cc12 (some centres unmarked) [CBK285428] | 97.6
17 | OCC[C@H]1CN2CCCC2CN1Cc1cccc(Cl)c1Cl (some centres unmarked) [CBK285429] | 86.6
18 | O=C(C1CCC1)N1CCC(c2nc(C3CCCC3)no2)C1 (centres unmarked) [CBK285434] | 88.1
19 | CCOc1ccccc1CN1CC2CCCN2C[C@@H]1C (some centres unmarked) [CBK285435] | 94.7
20 | C[C@H]1CN2C[C@H](O)CC2CN1Cc1ccc(Br)s1 (some centres unmarked) [CBK285439] | 96.1
21 | C[C@H]1CN2CCCC2CN1Cc1ccc2c(c1)CCO2 (some centres unmarked) [CBK285443] | 104
22 | Cc1cc(C2CCCCCN2C(=O)c2ccc(F)cc2)on1 (centres unmarked) [CBK285447] | 106

Row | SMILES | viability at 28.5 h, 10 µM [%]
23 | C[C@H]1CN2CCCC2CN1Cc1cccc(F)c1F (some centres unmarked) [CBK285454] | 111
24 | O[C@@]1(c2ccccn2)CC[C@H]2CN(Cc3ccc(F)c(F)c3)C[C@H]21 [CBK285456] | 107
25 | CC(=O)NC(c1ccccn1)C1CCN(Cc2cccc(F)c2)CC1 (centres unmarked) [CBK285461] | 104
26 | Cc1cc(C[C@@H]2COC[C@H]2NCc2ccccc2C(F)(F)F)on1 [CBK285464] | 100
27 | C[C@H]1CN2C[C@H](O)CC2CN1Cc1cccn1-c1ccc(F)cc1 (some centres unmarked) [CBK285465] | 97.4
28 | CCCn1cc(CN2CC3C[C@@H](O)CN3C[C@@H]2C)c2ccccc21 (some centres unmarked) [CBK285466] | 104
29 | Cc1ccc(C(C)CCN2CC3CCCN3C[C@H]2C)o1 (some centres unmarked) [CBK285467] | 101
30 | CCn1cc([C@H]2CN(C)C[C@@H]2N(C)C)c2ccccc21 [CBK285468] | 108
31 | COC(=O)[C@H]1CN(C(=O)C2CC(=O)N(C)C2)C[C@@H]1c1ccccc1F (some centres unmarked) [CBK285470] | 94.7
32 | O=C(NC1CC1)[C@@H]1C=CCN1S(=O)(=O)c1ccccc1Cl [CBK285479] | 103
33 | CCCc1ccc(C(=O)N2CCC(C(=O)c3cccnc3)CC2)o1 [CBK285482] | 101
34 | Cc1ncsc1C(=O)N1CCN(Cc2ccco2)C[C@@H]1C(C)C [CBK285486] | 101
35 | COc1cccc(CN2CCN(C(=O)N3CCCC3)[C@@H](C)C2)c1 [CBK285491] | 107
36 | O=C(C1CCCC1)N1C[C@@H]2CCCCN(CC3CC3)[C@@H]2C1 [CBK285493] | 104
37 | COC(=O)CN1CCCC[C@H]2CN(C(=O)C3CCC3)C[C@H]21 [CBK285496] | 103
38 | O=C(Cc1ccccc1)N1C[C@@H]2CCCCN(CC3CC3)[C@@H]2C1 [CBK285497] | 111
39 | Cc1cnccc1-c1c[nH]nc1C1CCCN1C(=O)c1ccccc1 (centres unmarked) [CBK285499] | 104
40 | C=CCN1CCCC[C@H]2CN(S(=O)(=O)c3cccc(F)c3)C[C@H]21 [CBK285500] | 103
41 | O=S(=O)(c1ccccc1)N1C[C@@H]2CCCCN(CC3CC3)[C@@H]2C1 [CBK285501] | 109
42 | COc1ccc([C@H]2CN(C(C)=O)[C@@H]3CCN(CC4CC4)C[C@H]23)cc1 [CBK285502] | 98.1
43 | O=C(c1cccs1)N1C[C@@H]2CCCCN(C3CCOCC3)[C@@H]2C1 [CBK285503] | 107
44 | O=C(CN1CCCC[C@H]2CN(C(=O)c3cccs3)C[C@H]21)NC1CC1 [CBK285504] | 90.5

Row | SMILES | viability at 28.5 h, 10 µM [%]
45 | Cc1cc(C)n(CCC(=O)N2C[C@@H]3CCCCN(CC4CC4)[C@@H]3C2)n1 [CBK285505] | 102
46 | CC(=O)N1C[C@@H]2CCCCN(CC(=O)NC3CC3)[C@@H]2C1 [CBK285508] | 101
47 | CC(C)N1CCCC[C@H]2CN(C(=O)C3OCCc4ccccc43)C[C@H]21 (some centres unmarked) [CBK285511] | 104
48 | CS(=O)(=O)N1C[C@@H]2CCCCN(Cc3cccc(F)c3)[C@@H]2C1 [CBK285514] | 103
49 | CC(=O)NCC(=O)N1C[C@@H]2CCCCN(Cc3cccc(F)c3)[C@@H]2C1 [CBK285515] | 90.1
50 | Cc1ccc(-c2nnc(C3CCCN(C(=O)C4CC4)C3)o2)s1 (centres unmarked) [CBK285516] | 83.9
51 | COC(=O)[C@H]1CCc2ccccc2N1C(=O)C1CC1 [CBK285518] | 78.9
52 | CN(C)C(=O)C1(Cc2ccccc2-c2cccnc2)CCN(Cc2ccccc2)CC1 [CBK285522] | 85.7
53 | CN1CCCCC[C@@H]2[C@@H]1[C@H](c1ccccc1)CN2C(=O)CN1CCCCCC1=O [CBK285524] | 87.5
54 | CC(C)NC(=O)[C@H]1CN(C(=O)c2cc[nH]n2)C[C@@H]1c1ccnc(N2CCCC2)n1 [CBK285526] | 89.3
55 | O=C1NCCCC12CCN(Cc1cnc(N3CCOCC3)nc1)CC2 [CBK285528] | 111
56 | Cc1cccc([C@H]2CN(C(=O)C3CCCC3)[C@@H]3CCN(C4CCCC4)C[C@H]23)c1 [CBK285529] | 118
57 | Cc1cccc(CN2CCCC[C@H]3CN(C(=O)c4cccs4)C[C@H]32)c1 [CBK285530] | 85.8
58 | COc1ccc(OC)c(C(O)CN2CCc3sccc3C2c2cccs2)c1 (centres unmarked) [CBK285532] | 109
59 | O=C(NCc1cccs1)C1(Cc2ccc(-c3ccc(F)c(F)c3)cc2)CCOCC1 [CBK285533] | 99.5
60 | O=C(NCC1CCCO1)C1(Cc2ccc(-c3ccc(F)c(F)c3)cc2)CCOCC1 (centres unmarked) [CBK285534] | 97.2
61 | CC(C)NC(=O)c1sc2ccccc2c1C1CN(Cc2c[nH]nc2C(C)(C)C)CCO1 (centres unmarked) [CBK285535] | 93.5
62 | COc1ccc(F)cc1-c1ccc(CC2(C(=O)NC3CCCCC3)CCOCC2)cc1 [CBK285538] | 86.6
63 | COc1ccc(F)cc1-c1cccc(CC2(C(=O)NCc3cccs3)CCOCC2)c1 [CBK285543] | 90.6
64 | Cc1oc(C(=O)Nc2cccc(CCc3ccncc3)c2)cc1CN1CCOCC1 [CBK285547] | 92.8
65 | CC(Oc1ccc2c(c1)OCO2)C(=O)N1CCc2sccc2C1c1ccccc1 (centres unmarked) [CBK285549] | 91.9
66 | O=C(c1cccc(Cn2cccn2)c1)N1CCc2sccc2C1c1ccccc1 (centres unmarked) [CBK285552] | 85.8

Row | SMILES | viability at 28.5 h, 10 µM [%]
67 | O=C(NCCc1ccc(Cl)cc1)C1CCN(C(=O)c2ccc3nsnc3c2)C1 (centres unmarked) [CBK285553] | 95.2
68 | Cc1ccc(C(=O)Nc2cccc(CCc3ccncc3)c2)c(=O)n1C [CBK285556] | 84.4
69 | Cc1cnc2c(C(=O)Nc3cccc(CCc4ccncc4)c3)cnn2c1 [CBK285558] | 106
70 | COc1ccc(NC(=O)c2cn(C)nc2CC2CCN(CCc3ccccc3)CC2)cc1 [CBK285559] | 90.9
71 | O=C(CC1NC(=O)N(C2CCCCC2)C1=O)Nc1cccc(CCc2ccncc2)c1 (centres unmarked) [CBK285563] | 93.1
72 | O=C(NCC1CCCCC1)C1(Cc2ccc(-c3ccncc3)cc2)CCOCC1 [CBK285564] | 121
73 | O=C(Nc1ccc(-c2cccc(F)c2)cc1)c1ccccc1Cn1cncn1 [CBK285565] | 95.6
74 | Cc1nnnn1-c1ccc(CC(=O)N2CCc3sccc3C2c2ccccc2)cc1 (centres unmarked) [CBK285567] | 103
75 | Nc1ncc(-c2ccc(Cl)cc2)c(C2CCCN(C(=O)C3CCCC3)C2)n1 (centres unmarked) [CBK285571] | 95.1
76 | Nc1ncc(-c2ccc(Cl)cc2)c(C2CCCN(C(=O)Cc3c[nH]c4ccccc34)C2)n1 (centres unmarked) [CBK285574] | 113
77 | CC(=O)N1CCCCC[C@@H]2[C@@H]1C[C@@H](Cc1ccccc1)N2C(=O)c1ccccc1 [CBK285576] | 115
78 | COc1ccc([C@@H]2CN(C(=O)c3ccccc3)[C@H]3CCN(Cc4ccc(F)cc4)C[C@@H]23)cc1 [CBK285581] | 109
79 | COc1ccc([C@H]2CN(C(=O)c3ccccc3)[C@@H]3CCN(Cc4cccs4)C[C@H]23)cc1 [CBK285582] | 103
80 | COc1ccc([C@H]2CN(C(=O)c3ccccc3)[C@@H]3CCN(Cc4ccccc4C)C[C@H]23)cc1 [CBK285583] | 105
81 | COc1ccc([C@H]2CN(C(=O)c3ccccc3)[C@@H]3CCN(Cc4ccsc4)C[C@H]23)cc1 [CBK285585] | 103
82 | O=C(Nc1ccccc1Oc1ccc(F)cc1)c1ccc(Cn2cncn2)cc1 [CBK285587] | 118
83 | O=C(NCCc1ccc(Cl)cc1)C1(Cc2ccc(-c3cccnc3)cc2)CCOCC1 [CBK285589] | 94.6
84 | O=C(NCCc1ccccc1Cl)C1(Cc2ccc(-c3cccnc3)cc2)CCOCC1 [CBK285590] | 95.5
85 | COc1ccc([C@H]2CN(C(=O)c3ccccc3)[C@@H]3CCN(Cc4ccccc4)C[C@H]23)cc1 [CBK285592] | 98.5
86 | COc1ccccc1-c1cccc(CC2(C(=O)NCCc3ccccc3)CCOCC2)c1 [CBK285593] | 93.6
